According to patent publication US20230248723A1, “PYRROLO[2,3-B]PYRAZINE COMPOUNDS AS CCCDNA INHIBITORS FOR THE TREATMENT OF HEPATITIS B VIRUS (HBV) INFECTION” (Hoffmann-La Roche Inc., priority 2017, published 2023):
Read-outs that look alike come from different tables or passages of the source.

Legend:
Format in all cases: cell-based
HBsAg = experiment: HBsAg, HBV-infected HepaRG; conditions: Hepatitis B virus
cccDNA = cccDNA assay (digital PCR), HBV-infected PHH
Description: (§1) Fresh primary human hepatocytes (PXB-PHH) harvested from humanized mice (uPA/SCID mice)—herein called PHH—were obtained from PhoenixBio Co., Ltd (Japan). Cells were seeded on a collagen I-coated plate at the following cell density: 35,000 cells/well (384-well), 70,000 cells/well (96-well), or, 400,000 cells/well (24-well) in modified hepatocyte clonal growth medium (dHCGM). dHCGM is a DMEM medium containing 100 U/ml Penicillin, 100 μg/ml Streptomycin, 20 mM Hopes, 44 mM NaHCO3, 15 μg/ml L-proline, 0.25 μg/ml insulin, 50 nM Dexamethazone, 5 ng/ml EGF, 0.1 mM Asc-2P, 2% DMSO and 10% FBS (Ishida et al., 2015). Cells were cultured at 37° C. incubator in a humidified atmosphere with 5% CO2. Culture medium was replaced 24 h post-plating and every 2 days until harvest.
(§2) Following 4 day of maturation with 1 μM MB-1, HLC were incubated with HBV (purified from CHB individuals) at multiplicity of infection (MOI) 10-40 without PEG for 24 hr; virus inoculum was removed the following day. HBV infection in PHH was performed at MOI 40+4% PEG. Compound treatment in HLC and PHH was started at day 3 post infection. Compound (in powder) was dissolved in DMSO; the final concentration of DMSO added to cells is 1%. Fresh compound was replenished every 2 day until cells were harvested at day 10 (PHH), or day 14 (HLC). Compound effect on HBV and cellular toxicity was measured by multiplex assay (HBsAg, HBeAg, albumin), branched DNA (pgRNA), or digital PCR (cccDNA) and depicted as % of inhibition compared to DMSO control. Graphs were prepared using Spotfire software.
HBV-infected cells (in 384- or 96-well plate) were lysed with Cells-to-CT Lysis Reagents according to manufacturer's instruction (Thermo Scientific). To remove excess of RC-DNA, samples were digested with T5 exonuclease (10 U) (New England Biolabs), at 37° C. for 1 hr; enzyme was inactivated by heating the samples at 80° C. for 15 min. DNA samples (1.2 μl) were added into the digital PCR Master Mix (QuantStudio Digital PCR Kit, Thermo Scientific) containing cccDNA primers 5′-[…] (forward), 5′-[…] (reverse), and […] (probe) (Werle-Lapostolle et al., 2004) in a total volume 5 μl, and loaded into dPCR array using AccuFill System (AB). Each sample was loaded into 4 subarrays/256 through-holes. Digital PCR assay was run on QuantStudio 12K Flex (AB) and data was analyzed by Digital Suite Software (AB).

pgRNA = pgRNA assay (branched DNA), HBV-infected PHH; conditions: Hepatitis B virus
Description: as §1
as §2, with “HBV infection in PHH was performed at MOI 40+4% PEG.” left out
Levels of pgRNA in infected cells (96-well plate) were measured using QuantiGene Singleplex 2.0 assay (Affymetrix), a hybridization-based assay that utilizes the xMAP™ Luminex magnetic beads and branched DNA (bDNA) signal amplification technology. The assay is performed in 96-well plate according to manufacturer's recommendation. Briefly, cells were lysed and lysates were incubated with HBV probe sets panel at 50-55° C. for 30 min then stored at −80° C. Signal amplification is achieved via sequential hybridization of PreAmplifier, Amplifier, and Label Probe. After adding Streptavidin phycoerythrin (SAPE) substrate, the signal is read using a FlexMap 3D (Luminex) instrument.

O=C(NC(CO)CO)c1c[nH]c2ncc(C3CC3)nc12 [compound 7]
IC50 (HBsAg; read-out: HBsAg IC50 (μM) Median, HepaRG, HepG2.2.15-derived HBV GT D, MOI 40): 9.01 µM | IC50 (HBsAg; read-out: HBsAg IC50 (μM) Median, HepaRG, HepG2.2.15-derived HBV GT D, MOI 125): 10.3 µM | IC50 (HBsAg; read-out: HBsAg IC50 (μM) Median, HepaRG, patient-derived HBV GT D, MOI 40): 0.67 µM | IC50 (HBsAg; read-out: HBsAg IC50 (μM) Median, HepaRG, patient-derived HBV GT D, MOI 125): 0.88 µM | IC50 (cccDNA; Hepatitis B virus, 240 h, patient-derived HBV GT A, MOI 40, day 10 pi, read-out: cccDNA IC50 (μM) Median): 7.15 µM | IC50 (cccDNA; Hepatitis B virus, 240 h, patient-derived HBV GT B, MOI 40, day 10 pi, read-out: cccDNA IC50 (μM) Median): 6.56 µM | IC50 (cccDNA; Hepatitis B virus, 240 h, patient-derived HBV GT C, MOI 40, day 10 pi, read-out: cccDNA IC50 (μM) Median): 6.2 µM | IC50 (cccDNA; Hepatitis B virus, 240 h, patient-derived HBV GT D, MOI 40, day 10 pi (Table 5), read-out: cccDNA IC50 (μM) Median): 6.69 µM | IC50 (cccDNA; Hepatitis B virus, HepG2.2.15-derived HBV GT D, MOI 40, read-out: cccDNA IC50 (μM) Median): 25 µM | IC50 (cccDNA; Hepatitis B virus, HepG2.2.15-derived HBV GT D, MOI 125, read-out: cccDNA IC50 (μM) Median): 25.2 µM | IC50 (cccDNA; Hepatitis B virus, patient-derived HBV (GT D), read-out: cccDNA IC50 (μM) Median): < 10 µM | IC50 (cccDNA; Hepatitis B virus, patient-derived HBV GT A-D, read-out: cccDNA IC50s): 6.2 to 7.15 µM | IC50 (cccDNA; Hepatitis B virus, patient-derived HBV GT D, MOI 40 (Table 6), read-out: cccDNA IC50 (μM) Median): 6.41 µM | IC50 (cccDNA; Hepatitis B virus, patient-derived HBV GT D, MOI 125, read-out: cccDNA IC50 (μM) Median): 6.78 µM | IC50 (cccDNA; patient-derived HBV (GT D), read-out: cccDNA IC50 (μM) Median): 6.76 µM | IC50 (pgRNA; 240 h, patient-derived HBV GT A, MOI 40, day 10 pi, read-out: pgRNA IC50 (μM) Median): 3.58 µM | IC50 (pgRNA; 240 h, patient-derived HBV GT B, MOI 40, day 10 pi, read-out: pgRNA IC50 (μM) Median): 3.13 µM | IC50 (pgRNA; 240 h, patient-derived HBV GT C, MOI 40, day 10 pi, read-out: pgRNA IC50 (μM) Median): 1.64 µM | IC50 (pgRNA; 240 h, patient-derived HBV GT D, MOI 40, day 10 pi (Table 5), read-out: pgRNA IC50 (μM) Median): 1.35 µM | IC50 (pgRNA; HepG2.2.15-derived HBV GT D, MOI 40, read-out: pgRNA IC50 (μM) Median): 12.8 µM | IC50 (pgRNA; HepG2.2.15-derived HBV GT D, MOI 125, read-out: pgRNA IC50 (μM) Median): 11.3 µM | IC50 (pgRNA; patient-derived HBV GT D, MOI 40 (Table 6), read-out: pgRNA IC50 (μM) Median): 1.48 µM | IC50 (pgRNA; patient-derived HBV GT D, MOI 125, read-out: pgRNA IC50 (μM) Median): 2.87 µM | IC50 (pgRNA; patient-derived HBV, read-out: pgRNA IC50): 1.48 µM
